Molecular target: T1, human adenosine A2A receptor (Homo sapiens, UniProt P29274)
T1 construct: expressed in transfected cells; host or cells: CHO cells, semliki forest virus expression system; washed membranes
Assay: [3H]-SCH-58261 binding assay, human adenosine A2A receptor (CHO cell membranes, SPA)
Conditions: [3H]-SCH-58261 displacement; list of examples 10-108; read-out: hA2a Ki
Protocol: Human Adenosine A2A Receptor
The human adenosine A2A receptor was recombinantly expressed in chinese hamster ovary (CHO) cells using the semliki forest virus expression system. Cells were harvested, washed twice by centrifugation, homogenized and again washed by centrifugation. The final washed membrane pellet was suspended in a Tris (50 mM) buffer containing 120 mM NaCl, 5 mM KCl, 2 mM CaCl2 and 10 mM MgCl2 (pH 7.4) (buffer A). […] Compounds were tested at 10 concentrations from 10 μM-0.3 nM. All assays were conducted in duplicate and repeated at least two times. Assay plates were incubated for 1 hour at room temperature before centrifugation and then bound ligand determined using a Packard Topcount scintillation counter. IC50 values were calculated using a non-linear curve fitting program and Ki values calculated using the Cheng-Prussoff equation.

T1 sequence (P29274 whole entry): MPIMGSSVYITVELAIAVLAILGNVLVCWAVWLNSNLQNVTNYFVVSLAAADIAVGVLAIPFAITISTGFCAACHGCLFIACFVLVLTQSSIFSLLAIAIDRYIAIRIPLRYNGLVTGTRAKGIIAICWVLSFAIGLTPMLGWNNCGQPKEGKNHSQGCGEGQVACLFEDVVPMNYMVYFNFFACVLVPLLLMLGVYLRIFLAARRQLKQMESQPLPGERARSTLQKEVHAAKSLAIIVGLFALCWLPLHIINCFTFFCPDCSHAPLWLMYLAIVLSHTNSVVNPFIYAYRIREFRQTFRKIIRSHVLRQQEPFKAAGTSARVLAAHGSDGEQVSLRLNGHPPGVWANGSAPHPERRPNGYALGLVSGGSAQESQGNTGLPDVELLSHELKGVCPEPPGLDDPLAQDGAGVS

| Compound | Ki [nM] |
| --- | --- |
| CC1CCCN(C(=O)c2cc(N)c3nc(-c4cccs4)nn3c2)C1 (stereo not shown) [Example 62, (8-Amino-2-thiophen-2-yl-[1,2,4]triazolo[1,5-a]pyridin-6-yl)-(3-methyl-piperidin-1-yl)-methanone] | 716 |
| CCCN(C)C(=O)c1cc(N)c2nc(-c3cccs3)nn2c1 [Example 63, 8-Amino-2-thiophen-2-yl-[1,2,4]triazolo[1,5-a]pyridine-6-carboxylic acid methyl-propyl-amide] | 440 |
| CCN(CCc1ccccn1)C(=O)c1cc(N)c2nc(-c3cccs3)nn2c1 [Example 65, 8-Amino-2-thiophen-2-yl-[1,2,4]triazolo[1,5-a]pyridine-6-carboxylic acid ethyl-(2-pyridin-2-yl-ethyl)-amide] | 718 |
| Nc1cc(C(=O)N2CCSCC2)cn2nc(-c3cccs3)nc12 [Example 66, (8-Amino-2-thiophen-2-yl-[1,2,4]triazolo[1,5-a]pyridin-6-yl)-thiomorpholin-4-yl-methanone] | 982 |
| CN(CCc1ccccc1)C(=O)c1cc(N)c2nc(-c3cccs3)nn2c1 [Example 67, 8-Amino-2-thiophen-2-yl-[1,2,4]triazolo[1,5-a]pyridine-6-carboxylic acid methyl-phenethyl-amide] | 395 |
| Nc1cc(C(=O)N2CCCC2)cn2nc(-c3ccccc3)nc12 [Example 68, (8-Amino-2-phenyl-[1,2,4]triazolo[1,5-a]pyridin-6-yl)-pyrrolidin-1-yl-methanone] | 246 |
| Nc1cc(C(=O)N2CCCCC2)cn2nc(-c3ccccc3)nc12 [Example 69, (8-Amino-2-phenyl-[1,2,4]triazolo[1,5-a]pyridin-6-yl)-piperidin-1-yl-methanone] | 554 |
| CCCCN(C)C(=O)c1cc(N)c2nc(-c3ccccc3)nn2c1 [Example 71, 8-Amino-2-phenyl-[1,2,4]triazolo[1,5-a]pyridine-6-carboxylic acid methyl-butyl-amide] | 484 |
| CC1CCCCN1C(=O)c1cc(N)c2nc(-c3ccccc3)nn2c1 (stereo not shown) [Example 72, (8-Amino-2-phenyl-[1,2,4]triazolo[1,5-a]pyridin-6-yl)-(2-methyl-piperidin-1-yl)-methanone] | 361 |
| CCN(CC)C(=O)C1CCCN(C(=O)c2cc(N)c3nc(-c4ccccc4)nn3c2)C1 (stereo not shown) [Example 73, 1-(8-Amino-2-phenyl-[1,2,4]triazolo[1,5-a]pyridine-6-carbonyl)-piperidine-3-carboxylic acid diethylamide] | 998 |
| CN(C)C(=O)[C@@H]1CCCN1C(=O)c1cc(N)c2nc(-c3ccccc3)nn2c1 [Example 76, 1-(8-Amino-2-phenyl-[1,2,4]triazolo[1,5-a]pyridine-6-carbonyl)-pyrrolidine-2-carboxylic acid dimethylamide] | 420 |
| CN(C)C(=O)CN(C)C(=O)c1cc(N)c2nc(-c3ccccc3)nn2c1 [Example 77, 8-Amino-2-phenyl-[1,2,4]triazolo[1,5-a]pyridine-6-carboxylic acid dimethylcarbamoyl-methyl-methyl-amide] | 674 |
| CC1CCCN(C(=O)c2cc(N)c3nc(-c4ccccc4)nn3c2)C1 (stereo not shown) [Example 78, (8-Amino-2-phenyl-[1,2,4]triazolo[1,5-a]pyridin-6-yl)-(3-methyl-piperidin-1-yl)-methanone] | 385 |
| CCCN(C)C(=O)c1cc(N)c2nc(-c3ccccc3)nn2c1 [Example 79, 8-Amino-2-phenyl-[1,2,4]triazolo[1,5-a]pyridine-6-carboxylic acid methyl-propyl-amide] | 886 |
| Nc1cc(C(=O)N2CC=CCC2)cn2nc(-c3ccccc3)nc12 [Example 80, (8-Amino-2-phenyl-[1,2,4]triazolo[1,5-a]pyridin-6-yl)-(3,6-dihydro-2H-pyridin-1-yl)-methanone] | 289 |
| CN(CCc1ccccc1)C(=O)c1cc(N)c2nc(-c3ccccc3)nn2c1 [Example 81, 8-Amino-2-phenyl-[1,2,4]triazolo[1,5-a]pyridine-6-carboxylic acid methyl-phenethyl-amide] | 524 |
| Cc1ccc(-c2nc3c(N)cc(C(=O)N4CC(C)OC(C)C4)cn3n2)o1 (stereo not shown) [Example 92, [8-Amino-2-(5-methyl-furan-2-yl)-[1,2,4]triazolo[1,5-a]pyridin-6-yl]-(2,6-dimethyl-morpholin-4-yl)-methanone] | 249 |
| CCN(CC)C(=O)c1cc(N)c2nc(-c3ccc(C)s3)nn2c1 [Example 93, 8-Amino-2-(5-methyl-thiophen-2-yl)-[1,2,4]triazolo[1,5-a]pyridine-6-carboxylic acid diethylamide] | 322 |
| Cc1ccc(-c2nc3c(N)cc(C(=O)N4CCSCC4)cn3n2)s1 [Example 102, [8-Amino-2-(5-methyl-thiophen-2-yl)-[1,2,4]triazolo[1,5-a]pyridin-6-yl]-thiomorpholin-4-yl-methanone] | 478 |
| Cc1ccc(-c2nc3c(N)cc(C(=O)N(C)CCc4ccccc4)cn3n2)s1 [Example 103, 8-Amino-2-(5-methyl-thiophen-2-yl)-[1,2,4]triazolo[1,5-a]pyridine-6-carboxylic acid methyl-phenethyl-amide] | 309 |
| Nc1cc(C(=O)N2CCCC2)cn2nc(-c3nccs3)nc12 [Example 104, (8-Amino-2-thiazol-2-yl-[1,2,4]triazolo[1,5-a]pyridin-6-yl)-pyrrolidin-1-yl-methanone] | 564 |
| CC1CCCN1C(=O)c1cc(N)c2nc(-c3nccs3)nn2c1 (stereo not shown) [Example 105, (8-Amino-2-thiazol-2-yl-[1,2,4]triazolo[1,5-a]pyridin-6-yl)-(2-methyl-pyrrolidin-1-yl)-methanone] | 654 |
| CCCCN(C)C(=O)c1cc(N)c2nc(-c3nccs3)nn2c1 [Example 106, 8-Amino-2-thiazol-2-yl-[1,2,4]triazolo[1,5-a]pyridine-6-carboxylic acid butyl-methyl-amide] | 844 |

Now those with a lower Ki, led by results:

| Ki [nM] | Compound |
| --- | --- |
| 145 | CC1CCCN1C(=O)c1cc(N)c2nc(-c3ccccc3)nn2c1 (stereo not shown) [Example 70, (8-Amino-2-phenyl-[1,2,4]triazolo[1,5-a]pyridin-6-yl)-(2-methyl-pyrrolidin-1-yl)-methanone] |
| 196 | COC[C@@H]1CCCN1C(=O)c1cc(N)c2nc(-c3ccccc3)nn2c1 [Example 74, (8-Amino-2-phenyl-[1,2,4]triazolo[1,5-a]pyridin-6-yl)-(2-methoxymethyl-pyrrolidin-1-yl)-methanone] |
| 131 | CCN(CC)C(=O)c1cc(N)c2nc(-c3ccc(C)o3)nn2c1 [Example 82, 8-Amino-2-(5-methyl-furan-2-yl)-[1,2,4]triazolo[1,5-a]pyridine-6-carboxylic acid diethylamide] |
| 104 | CCN(CCOC)C(=O)c1cc(N)c2nc(-c3ccc(C)o3)nn2c1 [Example 87, 8-Amino-2-(5-methyl-furan-2-yl)-[1,2,4]triazolo[1,5-a]pyridine-6-carboxylic acid ethyl-(2-methoxy-ethyl)-amide] |
| 178 | CCCN(C)C(=O)c1cc(N)c2nc(-c3ccc(C)o3)nn2c1 [Example 89, 8-Amino-2-(5-methyl-furan-2-yl)-[1,2,4]triazolo[1,5-a]pyridine-6-carboxylic acid methyl-propyl-amide] |
| 140 | Cc1ccc(-c2nc3c(N)cc(C(=O)N4CCSCC4)cn3n2)o1 [Example 90, [8-Amino-2-(5-methyl-furan-2-yl)-[1,2,4]triazolo[1,5-a]pyridin-6-yl]-thiomorpholin-4-yl-methanone] |
| 112 | Cc1ccc(-c2nc3c(N)cc(C(=O)N(C)CCc4ccccc4)cn3n2)o1 [Example 91, 8-Amino-2-(5-methyl-furan-2-yl)-[1,2,4]triazolo[1,5-a]pyridine-6-carboxylic acid methyl-phenethyl-amide] |
| 213 | Cc1ccc(-c2nc3c(N)cc(C(=O)N4CCCC4)cn3n2)s1 [Example 94, [8-Amino-2-(5-methyl-thiophen-2-yl)-[1,2,4]triazolo[1,5-a]pyridin-6-yl]-pyrrolidin-1-yl-methanone] |
| 225 | Cc1ccc(-c2nc3c(N)cc(C(=O)N4CCCCC4)cn3n2)s1 [Example 95, [8-Amino-2-(5-methyl-thiophen-2-yl)-[1,2,4]triazolo[1,5-a]pyridin-6-yl]-piperidin-1-yl-methanone] |
| 154 | Cc1ccc(-c2nc3c(N)cc(C(=O)N4CCCC4C)cn3n2)s1 (stereo not shown) [Example 96, [8-Amino-2-(5-methyl-thiophen-2-yl)-[1,2,4]triazolo[1,5-a]pyridin-6-yl]-(2-methyl-pyrrolidin-1-yl)-methanone] |
| 220 | Cc1ccc(-c2nc3c(N)cc(C(=O)N(C)CC(=O)N(C)C)cn3n2)s1 [Example 98, 8-Amino-2-(5-methyl-thiophen-2-yl)-[1,2,4]triazolo[1,5-a]pyridine-6-carboxylic acid dimethylcarbamoyl-methyl-methyl-amide] |
| 238 | CCN(CCOC)C(=O)c1cc(N)c2nc(-c3ccc(C)s3)nn2c1 [Example 99, 8-Amino-2-(5-methyl-thiophen-2-yl)-[1,2,4]triazolo[1,5-a]pyridine-6-carboxylic acid ethyl-(2-methoxy-ethyl)-amide] |
| 178 | Cc1ccc(-c2nc3c(N)cc(C(=O)N4CCCC(C)C4)cn3n2)s1 (stereo not shown) [Example 100, [8-Amino-2-(5-methyl-thiophen-2-yl)-[1,2,4]triazolo[1,5-a]pyridin-6-yl]-(3-methyl-piperidin-1-yl)-methanone] |
| 228 | CCCN(C)C(=O)c1cc(N)c2nc(-c3ccc(C)s3)nn2c1 [Example 101, 8-Amino-2-(5-methyl-thiophen-2-yl)-[1,2,4]triazolo[1,5-a]pyridine-6-carboxylic acid methyl-propyl-amide] |

From patent US6689790B2, “Substituted triazolopyridine compounds” (Hoffmann-La Roche Inc., priority 2001, dated 2004)
